Entries after “also recorded” stand apart in the source; their conditions may differ. Where two headings read alike, the source gives them in different places.
Assays:
[1] = target: PLK3 (Homo sapiens, UniProt Q9H4B4); conditions: cited from earlier work
[2] = target: CaMKVI (Homo sapiens, UniProt Q16566); conditions: cited from earlier work
[3] = target: Pim-3 (Homo sapiens, UniProt Q86V86); conditions: cited from earlier work
[4] = target: GSK3α (Homo sapiens, UniProt P49840); conditions: cited from earlier work
Chain of GSK3α (P49840 whole entry): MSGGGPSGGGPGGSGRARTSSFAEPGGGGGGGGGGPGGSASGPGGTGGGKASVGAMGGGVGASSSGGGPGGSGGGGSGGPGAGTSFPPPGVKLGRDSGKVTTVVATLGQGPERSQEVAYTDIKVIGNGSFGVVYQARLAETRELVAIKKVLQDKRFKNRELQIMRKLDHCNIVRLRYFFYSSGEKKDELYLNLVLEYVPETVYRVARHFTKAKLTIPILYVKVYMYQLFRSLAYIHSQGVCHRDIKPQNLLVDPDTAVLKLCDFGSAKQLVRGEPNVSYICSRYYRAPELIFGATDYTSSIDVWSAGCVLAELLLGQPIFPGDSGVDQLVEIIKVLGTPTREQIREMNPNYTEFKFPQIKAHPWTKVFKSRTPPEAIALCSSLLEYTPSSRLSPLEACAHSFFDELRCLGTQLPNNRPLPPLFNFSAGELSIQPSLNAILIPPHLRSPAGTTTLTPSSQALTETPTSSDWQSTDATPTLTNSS

[5] = target: TYK2 (Homo sapiens, UniProt P29597); conditions: Source Invitrogen; 10-point titration in duplicates, done once; cited from earlier work
Chain of TYK2 (P29597 whole entry): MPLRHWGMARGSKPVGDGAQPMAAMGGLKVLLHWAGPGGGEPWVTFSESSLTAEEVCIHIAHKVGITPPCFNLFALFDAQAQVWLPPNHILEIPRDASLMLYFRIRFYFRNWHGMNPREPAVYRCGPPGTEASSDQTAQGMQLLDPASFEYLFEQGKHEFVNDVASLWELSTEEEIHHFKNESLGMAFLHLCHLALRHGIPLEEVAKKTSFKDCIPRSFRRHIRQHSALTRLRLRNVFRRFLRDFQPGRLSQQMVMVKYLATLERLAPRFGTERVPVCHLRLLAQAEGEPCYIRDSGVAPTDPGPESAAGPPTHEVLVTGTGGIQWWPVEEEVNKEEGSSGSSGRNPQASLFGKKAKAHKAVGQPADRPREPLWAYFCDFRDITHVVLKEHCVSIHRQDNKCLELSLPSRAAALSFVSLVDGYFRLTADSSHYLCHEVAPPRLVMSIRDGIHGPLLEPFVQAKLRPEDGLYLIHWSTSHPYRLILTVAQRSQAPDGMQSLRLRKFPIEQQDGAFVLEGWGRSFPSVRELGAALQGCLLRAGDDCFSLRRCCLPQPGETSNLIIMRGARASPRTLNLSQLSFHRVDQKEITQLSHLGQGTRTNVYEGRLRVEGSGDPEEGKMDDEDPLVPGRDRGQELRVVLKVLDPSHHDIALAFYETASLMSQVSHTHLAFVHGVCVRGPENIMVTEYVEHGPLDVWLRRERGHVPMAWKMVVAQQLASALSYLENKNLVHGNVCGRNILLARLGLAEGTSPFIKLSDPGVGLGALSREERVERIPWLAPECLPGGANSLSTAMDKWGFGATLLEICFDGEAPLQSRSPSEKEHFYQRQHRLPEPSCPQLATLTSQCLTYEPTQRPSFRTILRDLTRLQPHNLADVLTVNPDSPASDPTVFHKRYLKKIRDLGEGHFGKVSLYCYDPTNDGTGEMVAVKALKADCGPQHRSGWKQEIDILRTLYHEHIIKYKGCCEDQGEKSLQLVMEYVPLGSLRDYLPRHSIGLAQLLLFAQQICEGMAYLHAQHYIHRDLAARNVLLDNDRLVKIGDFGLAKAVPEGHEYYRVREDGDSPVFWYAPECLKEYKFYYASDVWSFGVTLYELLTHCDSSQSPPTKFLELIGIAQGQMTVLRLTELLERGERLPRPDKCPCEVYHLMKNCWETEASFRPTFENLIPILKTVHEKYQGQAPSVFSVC

[6] = test system: DIPG-007 and DIPG-IV cells; assay: Annexin-PI flow cytometry apoptosis assay; assay type: cell-based, human; conditions: 48 h, vs DMSO vehicle control
Procedure: FIGS. 5A-5K provide that pharmacological inhibition of ERK5 triggered cell death and apoptosis in DIPG cells. […] (5C-5E).
Apoptosis was quantified using the Pacific Blue Annexin V Apoptosis Detection Kit with propidium iodide (BioLegend, San Diego, Calif. Cat #640926). Analysis was performed at the Flow Cytometry Core, Rangos Research Center, UPMC Children's Hospital of Pittsburgh.

[7] = target: TYRO3 (Homo sapiens, UniProt Q06418); conditions: Source Invitrogen; 10-point titration in duplicates, done once; cited from earlier work
[8] = target: Kit (Homo sapiens, UniProt P10721); conditions: cited from earlier work
Chain of Kit (P10721 26-976): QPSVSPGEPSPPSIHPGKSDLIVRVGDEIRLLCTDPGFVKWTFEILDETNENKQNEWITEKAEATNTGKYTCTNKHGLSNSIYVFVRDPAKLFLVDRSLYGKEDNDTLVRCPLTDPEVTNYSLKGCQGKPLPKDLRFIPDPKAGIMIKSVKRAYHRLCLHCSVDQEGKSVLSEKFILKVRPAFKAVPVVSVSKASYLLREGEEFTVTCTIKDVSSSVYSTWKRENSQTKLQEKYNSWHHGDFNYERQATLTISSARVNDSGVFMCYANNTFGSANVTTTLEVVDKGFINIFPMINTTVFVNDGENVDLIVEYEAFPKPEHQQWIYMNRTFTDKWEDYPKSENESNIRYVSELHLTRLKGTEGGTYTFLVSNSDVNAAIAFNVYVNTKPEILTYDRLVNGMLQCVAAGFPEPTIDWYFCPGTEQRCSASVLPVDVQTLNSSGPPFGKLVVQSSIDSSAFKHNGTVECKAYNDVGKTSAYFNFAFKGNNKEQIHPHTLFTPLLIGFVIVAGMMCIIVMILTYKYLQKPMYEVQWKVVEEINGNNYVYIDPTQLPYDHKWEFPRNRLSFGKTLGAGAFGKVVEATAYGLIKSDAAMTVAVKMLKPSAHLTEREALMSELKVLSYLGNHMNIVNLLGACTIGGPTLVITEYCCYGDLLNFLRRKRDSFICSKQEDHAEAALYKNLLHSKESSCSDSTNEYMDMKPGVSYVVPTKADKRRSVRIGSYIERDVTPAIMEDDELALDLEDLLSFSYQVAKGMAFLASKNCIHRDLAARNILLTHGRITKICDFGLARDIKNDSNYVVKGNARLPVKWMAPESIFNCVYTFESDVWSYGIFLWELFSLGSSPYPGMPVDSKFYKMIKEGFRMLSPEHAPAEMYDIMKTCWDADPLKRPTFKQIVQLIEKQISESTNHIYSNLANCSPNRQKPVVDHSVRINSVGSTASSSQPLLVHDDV

[9] = target: TLK2 (Homo sapiens, UniProt Q86UE8); conditions: cited from earlier work
[10] = target: JNK1 (Homo sapiens, UniProt P45983); conditions: cited from earlier work
Chain of JNK1 (P45983 whole entry): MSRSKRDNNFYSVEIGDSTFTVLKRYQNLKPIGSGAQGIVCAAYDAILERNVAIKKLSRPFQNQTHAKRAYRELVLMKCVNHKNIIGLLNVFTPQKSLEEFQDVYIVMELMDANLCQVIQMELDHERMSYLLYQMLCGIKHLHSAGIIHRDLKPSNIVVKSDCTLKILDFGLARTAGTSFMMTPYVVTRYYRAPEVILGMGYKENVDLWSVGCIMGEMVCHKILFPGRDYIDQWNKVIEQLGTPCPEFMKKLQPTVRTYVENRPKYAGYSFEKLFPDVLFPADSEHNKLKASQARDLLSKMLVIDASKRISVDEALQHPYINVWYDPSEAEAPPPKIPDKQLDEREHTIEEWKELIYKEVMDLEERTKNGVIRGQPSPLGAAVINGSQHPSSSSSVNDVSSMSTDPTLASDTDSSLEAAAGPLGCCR

[11] = target: PDGFRβ (Homo sapiens, UniProt P09619); conditions: cited from earlier work
[12] = test system: four DIPG cell lines; assay: viability of DIPG cell lines treated in vitro with TG02; assay type: cell-based, human
Procedure: (§1) Direct cell counts were performed using the Countess II FL Automated Cell Counter (ThermoFisher Scientific). Alamar blue viability (ThermoFisher Scientific) and the 5-bromo-2′-deoxyuridine (BrdU) incorporated cell proliferation assay (Cell Signaling Technology Cat #6813) were performed using the manufacturer's standard protocol. EC50 curve analysis was performed using raw fluorescent Alamar blue values that were inputted into PRISM 7.0. Drug concentrations were log 10 transformed and values normalized to percent viability with respect to vehicle treated cells. EC50 values were interpolated from a log inhibitor vs. normalized response with variable slope using a least square fit model.

[13] = target: JAK2 (Homo sapiens, UniProt O60674); conditions: Source Invitrogen; 10-point titration in duplicates, done once; cited from earlier work
[14] = target: p38α (Homo sapiens, UniProt Q16539); conditions: cited from earlier work
Chain of p38α (Q16539 whole entry): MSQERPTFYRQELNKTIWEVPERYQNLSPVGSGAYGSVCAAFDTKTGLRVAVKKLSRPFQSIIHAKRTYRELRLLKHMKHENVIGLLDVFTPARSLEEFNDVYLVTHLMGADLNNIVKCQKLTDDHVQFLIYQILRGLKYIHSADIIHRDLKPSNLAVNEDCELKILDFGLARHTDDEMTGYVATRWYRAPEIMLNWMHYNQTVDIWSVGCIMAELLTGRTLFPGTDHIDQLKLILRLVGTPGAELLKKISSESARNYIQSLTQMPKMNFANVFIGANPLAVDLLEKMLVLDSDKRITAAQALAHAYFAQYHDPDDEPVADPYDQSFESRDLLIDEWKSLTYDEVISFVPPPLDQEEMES

[15] = test system: ERK5 phosphorylation in DIPG-007 and DIPG-IV cells; assay: Western blot of ERK5 phosphorylation in DIPG cells; assay type: cell-based, human; conditions: 50 nM
Procedure: Cell pellets were lysed in PLC lysis buffer containing protease and phosphatase inhibitors (Roche Inc.). Protein lysates were quantified using the bicinchoninic acid (BCA) assay (Pierce Chemical Co., Rockford, Ill.). 30 μg of total protein lysate was loaded in 10% SDS-PAGE gels and electrophoresed. Proteins were transferred to PVDF membranes using a semi-dry transfer apparatus (Bio-Rad). Membranes were blocked for one hour and probed for various proteins overnight in 5% non-fat milk or 5% BSA in Tris Buffered Saline Solution, 0.5% Tween-20 (TBST) or Phosphate Buffered Saline Solution with 0.5% Tween-20 (PBST). Membranes were washed for 5 mins in TBST (3×) and incubated with horseradish peroxidase-conjugated antibodies specific for the primary antibody (BioRad Laboratories, Inc., CA, USA). Binding was detected using Chemiluminescence Reagent Plus (PerkinElmer Inc., MA, USA).

[16] = target: PLK1 (Homo sapiens, UniProt P53350); conditions: cited from earlier work
[17] = target: TAK1 (Homo sapiens, UniProt O43318); conditions: cited from earlier work
[18] = test system: DIPG-13p and DIPG-IV cells; assay: cell viability with TG02 and/or RT; assay type: cell-based, human
[19] = cited from earlier work
[20] = target: DYRKIB (Homo sapiens, UniProt Q9Y463); conditions: cited from earlier work
[21] = test system: DIPG13p; assay: IC50 of two forms of TG02 in DIPG cell lines in vitro; assay type: cell-based, human; conditions: DIPG13p cell line; listed as TG02 obtained from Adastra Pharmaceuticals
Procedure: as §1

[22] = test system: DIPG4; assay: as above; assay type: cell-based, human; conditions: DIPG4 cell line; listed as TG02 obtained from Adastra Pharmaceuticals
Procedure: as §1

[23] = test system: DIPG007; assay: as above; assay type: cell-based, human; conditions: DIPG007 cell line; listed as TG02 obtained from Adastra Pharmaceuticals
Procedure: as §1

[24] = test system: SF8628; assay: as above; assay type: cell-based, human; conditions: SF8628 cell line; listed as TG02 obtained from Adastra Pharmaceuticals
Procedure: as §1

[25] = target: TTK (Homo sapiens, UniProt P33981); conditions: cited from earlier work
[26] = target: c-Raf (Homo sapiens, UniProt P04049); conditions: cited from earlier work
[27] = test system: six adult patient-derived glioblastoma cell lines (e.g., BT228, BT286, BT145); assay: radiation therapy and TG02 in adult glioblastoma cell lines; assay type: cell-based, human; conditions: TG02 between 100 and 250 nM
Procedure: Cell viability was assessed on Day 5.

[28] = target: ZAP-70 (Homo sapiens, UniProt P43403); conditions: cited from earlier work
Chain of ZAP-70 (P43403 whole entry, species assumed): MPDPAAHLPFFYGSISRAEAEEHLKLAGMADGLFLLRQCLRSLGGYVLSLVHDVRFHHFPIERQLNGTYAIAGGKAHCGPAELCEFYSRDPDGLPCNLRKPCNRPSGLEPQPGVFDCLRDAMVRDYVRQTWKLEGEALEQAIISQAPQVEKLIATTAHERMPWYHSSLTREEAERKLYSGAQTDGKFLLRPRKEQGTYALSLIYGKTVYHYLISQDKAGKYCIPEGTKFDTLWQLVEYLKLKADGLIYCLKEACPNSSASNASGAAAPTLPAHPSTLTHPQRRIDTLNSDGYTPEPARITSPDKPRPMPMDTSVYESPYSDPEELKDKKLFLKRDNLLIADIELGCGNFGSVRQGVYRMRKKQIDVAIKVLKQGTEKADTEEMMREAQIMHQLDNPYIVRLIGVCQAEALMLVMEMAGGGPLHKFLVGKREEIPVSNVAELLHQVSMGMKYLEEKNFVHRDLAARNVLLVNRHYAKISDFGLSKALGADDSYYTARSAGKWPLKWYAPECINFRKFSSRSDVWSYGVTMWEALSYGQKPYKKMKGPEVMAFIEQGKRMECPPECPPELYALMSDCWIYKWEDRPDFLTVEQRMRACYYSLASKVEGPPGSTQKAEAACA

Chain of PLK3 (Q9H4B4 whole entry, species assumed): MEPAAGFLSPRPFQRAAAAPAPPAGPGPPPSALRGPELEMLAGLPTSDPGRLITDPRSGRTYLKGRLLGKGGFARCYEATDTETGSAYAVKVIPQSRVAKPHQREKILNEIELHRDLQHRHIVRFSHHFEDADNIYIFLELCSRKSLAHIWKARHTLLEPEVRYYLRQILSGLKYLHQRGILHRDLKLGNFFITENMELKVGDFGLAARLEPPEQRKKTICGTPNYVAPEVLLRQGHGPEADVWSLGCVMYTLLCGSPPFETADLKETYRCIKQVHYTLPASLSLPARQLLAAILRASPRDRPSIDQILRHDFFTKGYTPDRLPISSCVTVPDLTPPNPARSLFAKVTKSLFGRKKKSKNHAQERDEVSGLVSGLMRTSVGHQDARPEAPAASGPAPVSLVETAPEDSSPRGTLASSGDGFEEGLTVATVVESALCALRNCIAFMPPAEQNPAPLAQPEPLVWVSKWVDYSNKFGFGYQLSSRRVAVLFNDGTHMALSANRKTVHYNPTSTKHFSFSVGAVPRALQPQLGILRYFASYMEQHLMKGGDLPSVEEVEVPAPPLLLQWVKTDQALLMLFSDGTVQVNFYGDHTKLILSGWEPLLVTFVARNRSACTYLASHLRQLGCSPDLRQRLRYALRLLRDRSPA

CN1C/C=C/CCOc2cccc(c2)-c2ccnc(n2)Nc2cccc(c2)C1 [TG02, (16E)-14-methyl-20-oxa-5,7,14,27-tetraazatetracyclo[19.3.1.12,6.18,12]heptacosa-1(25),2(27),3,5,8(26),9,11,16,21,23-decaene]
inhibition at 100 nm [1]: less than 50% | inhibition at 100 nm [2]: less than 50% | inhibition at 100 nm [3]: less than 50% | inhibition at 100 nm [4]: less than 50% | IC50 [5]: 14 nM | apoptosis (Annexin-PI) [6]: significantly higher rates of apoptosis; also recorded: increased populations in early apoptosis | viable cells (Annexin negative, PI negative) [6]: decreased viable cells | IC50 [7]: 36 nM | inhibition at 100 nm [8]: less than 50% | inhibition at 100 nm [9]: less than 50% | inhibition at 100 nm [10]: less than 50% | inhibition at 100 nm [11]: less than 50% | IC50 ([12]; Homo sapiens, read-out: IC50 of TG02 in vitro against DIPG cell lines, approximate): ~100 nM | EC50 ([12]; Homo sapiens, median of four DIPG cell lines in vitro, read-out: median EC50 (decreased viability)): 75 nM | EC50 ([12]; Homo sapiens, range over four DIPG cell lines in vitro, read-out: EC50 range (decreased viability)): 60 to 93 nM | apoptosis ([12]; four DIPG cell lines in vitro): increased apoptosis | IC50 [13]: 19 nM | inhibition at 100 nm [14]: less than 50% | ERK5 Thr218/Tyr220 phosphorylation (regulated by MEK5) [15]: did not inhibit | ERK5 auto-phosphorylation and ERK5 activity sites (Ser731 and Thr733) [15]: confirmed to inhibit | inhibition at 100 nm [16]: less than 50% | inhibition at 100 nm [17]: less than 50% | cell viability, RT and TG02 ([18]; 50 nM TG02 and 10 Gy of RT (2-Gy fractions over 5 days), Day 5, compared to RT or TG02 only): statistically significant reduction in cell viability | cell viability, TG02 alone ([18]; 50 nM of TG02, Day 5, vs DMSO control): significantly reduced cell viability | dose-limiting toxicities (DLTs), DD regimen ([19]; human, in vivo): grade 3 diarrhea (n=1) at 200 mg of TG02, and grade 4 neutropenia and grade 3 increase in ALT (n=1) at 250 mg of TG02 | dose-limiting toxicities (DLTs), MN regimen ([19]; human, in vivo): grade 4 lymphopenia (n=2) and increase in ALT (n=1) at 250 mg of TG02 | MTD, metronomic (MN) temozolomide regimen ([19]; temozolomide 50 mg/m^2): 200 mg | MTD, dose-dense (DD) temozolomide regimen ([19]; temozolomide 125 m/m^2 per day 7 days on/7 days off): 250 mg | inhibition at 100 nm [20]: less than 50% | IC50 [21]: 80 nM | IC50 [22]: 60 nM | IC50 [23]: 93 nM | IC50 [24]: 70 nM | inhibition at 100 nm [25]: less than 50% | inhibition at 100 nm [26]: less than 50% | effect of combining radiation therapy (RT) and TG02 [27]: mostly a synergistic effect | inhibition at 100 nm [28]: less than 50%
